Laboratory results as given in patent publication US9914739B2, “6H-furo[2,3-E]indole compounds for the treatment of hepatitis C” (BRISTOL-MYERS SQUIBB COMPANY, priority 2014, dated 2018).

Tested on: genotype 1b (Con-1) HCV replicon
Assay: HCV replicon luciferase assay, genotype 1b
Type: cell-based
Details: Hepatitis C virus, Huh-7, 72 h, Huh-7 cells with genotype 1b HCV replicon, Renilla luciferase, 3 days incubation
Procedure: The cell lines used to evaluate compounds consist of a human hepatocyte derived cell line (Huh-7) that constitutively expresses a genotype 1b (Con-1) HCV replicon or a genotype 1b (Con-1) HCV replicon with an asparagine replacing the cysteine at amino acid 316, or a genotype 2a (JFH-1) replicon, containing a Renilla luciferase reporter gene. These cells were maintained in Dulbecco's modified Eagle medium (DMEM) containing 10% FBS, 100 U/mL penicillin/streptomycin and 1.0 mg/mL G418.
To evaluate compound efficacy, titrated compounds were transferred to sterile 384-well tissue culture treated plates, and the plates were seeded with HCV replicon cells (50 μL at a density of 2.4×10^3 cells/well) in DMEM containing 4% FBS (final DMSO concentration at 0.5%). After 3 days incubation at 37° C., cells were analyzed for Renilla Luciferase activity using the EnduRen substrate (Promega cat #E6485) according to the manufacturer's directions. Briefly, the EnduRen substrate was diluted in DMEM and then added to the plates to a final concentration of 7.5 μM. The plates were incubated for at least 1 h at 37° C. then read on a Viewlux Imager (PerkinElmer) using a luminescence program. The 50% effective concentration (EC50) was calculated using the four-parameter logistic formula noted above.

| Compound | EC50 (class symbol) | EC50 (numeric value) |
| --- | --- | --- |
| CNC(=O)c1c(-c2ccc(F)cc2)oc2c1cc(OC(C)C)c1[nH]cc(C(=O)C(=O)O)c12 [Compound 2002] | > 1 µM |  |
| CNC(=O)c1c(-c2ccc(F)cc2)oc2c1cc(-c1cccc(C(=O)NC(C)(C)C)c1)c1[nH]c(-c3ccccc3)cc12 [Compound 1007] | 0.1 to 1 µM |  |
| CNC(=O)c1c(-c2ccc(F)cc2)oc2c1cc(-c1cccc(C(=O)NC(C)(C)C)c1)c1[nH]cc(C)c12 [Compound 1006] | 0.1 to 1 µM | 0.51 µM |
| CNC(=O)c1c(-c2ccc(F)cc2)oc2c1cc(-c1cccc(C(=O)NC(C)(C)C)c1)c1[nH]cc(C(=O)C(=O)OC)c12 [Compound 2003, methyl 2-(5-(3-(tert-butylcarbamoyl)phenyl)-2-(4-fluorophenyl)-3-(methylcarbamoyl)-6H-furo[2,3-e]indol-8-yl)-2-oxoacetate] | 0.1 to 1 µM | 0.44 µM |
| CNC(=O)c1c(-c2ccc(F)cc2)oc2c1cc(-c1cccc(C(=O)NCC3(CO)CCC3)c1)c1[nH]ccc12 [Compound 4011] | 0.1 to 1 µM |  |
| CNC(=O)c1c(-c2ccc(F)cc2)oc2c1cc(-c1cccc(C(=O)OC(C)(C)C)c1)c1[nH]ccc12 [Compound 1004, tert-butyl 3-(2-(4-fluorophenyl)-3-(methylcarbamoyl)-6H-furo[2,3-e]indol-5-yl)benzoate] | 0.1 to 1 µM |  |
| CNC(=O)c1c(-c2ccc(F)cc2)oc2c1cc(-c1cccc(C(=O)NC(C)(C)C)c1)c1[nH]c(C)cc12 [Compound 1008] | 0.1 to 1 µM |  |
| CNC(=O)c1c(-c2ccc(F)cc2)oc2c1cc(-c1cccc(C(=O)NC(C)(C)C(=O)OC)c1)c1[nH]ccc12 [Compound 4004] | < 0.1 µM |  |
| CNC(=O)C(=O)c1c[nH]c2c(-c3cccc(C(=O)NC(C)(C)C)c3)cc3c(C(=O)NC)c(-c4ccc(F)cc4)oc3c12 [Compound 2005] | > 1 µM | 5.16 µM |
| CNC(=O)c1c(-c2ccc(F)cc2)oc2c1cc(OC(C)C)c1c2ccn1CC(F)F [Compound 6001] | > 1 µM |  |
| CNC(=O)c1c(-c2ccc(F)cc2)oc2c1cc(-c1cccc(C(=O)NC3(C(=O)OC)CCC3)c1)c1[nH]ccc12 [Compound 4012] | 0.1 to 1 µM |  |
| C#CC(C)(CC)NC(=O)c1cccc(-c2cc3c(C(=O)NC)c(-c4ccc(F)cc4)oc3c3cc[nH]c23)c1 (stereo not drawn) [Compound 4019] | 0.1 to 1 µM |  |
| CNC(=O)c1c(-c2ccc(F)cc2)oc2c1cc(-c1cccc(C(=O)NCC(F)(F)C(F)(F)C(F)(F)F)c1)c1[nH]ccc12 [Compound 4007] | < 0.1 µM | 0.049 µM |
| CNC(=O)c1c(-c2ccc(F)cc2)oc2c1cc(-c1cccc(C(=O)NC(C)(C)c3ccc(Cl)cc3)c1)c1[nH]ccc12 [Compound 4010] | < 0.1 µM | 0.027 µM |
| CNC(=O)c1c(-c2ccc(F)cc2)oc2c1cc(-c1cccc(C(=O)NC(C)(C)C)c1)c1c2ccn1S(C)(=O)=O [Compound 5002] | < 0.1 µM |  |
| CNC(=O)c1c(-c2ccc(F)cc2)oc2c1cc(-c1cccc(C(=O)NC(C)(C)C)c1)c1c2cc(-c2ccccc2)n1S(C)(=O)=O [Compound 5004] | 0.1 to 1 µM |  |
| CNC(=O)c1c(-c2ccc(F)cc2)oc2c1cc(-c1cccc(C(=O)NC3(c4ncccn4)CC3)c1)c1[nH]ccc12 [Compound 4006] | < 0.1 µM |  |
| CCOC(=O)c1c(-c2ccc(F)cc2)oc2c1cc(OC(C)C)c1[nH]ccc12 [Compound 1001, ethyl 2-(4-fluorophenyl)-5-isopropoxy-6H-furo[2,3-e]indole-3-carboxylate] | > 1 µM |  |
| CNC(=O)c1c(-c2ccc(F)cc2)oc2c1cc(-c1ccc(OC)c(C(=O)NCC(F)(F)C(F)(F)C(F)(F)F)c1)c1[nH]ccc12 [Compound 1009] | < 0.1 µM |  |
| CNC(=O)c1c(-c2ccc(F)cc2)oc2c1cc(OC(C)C)c1[nH]ccc12 [Compound 1002, 2-(4-fluorophenyl)-5-isopropoxy-N-methyl-6H-furo[2,3-e]indole-3-carboxamide] | > 1 µM |  |
| CNC(=O)c1c(-c2ccc(F)cc2)oc2c1cc(-c1cccc(C(=O)NCC(C)(F)F)c1)c1[nH]ccc12 [Compound 4005] | 0.1 to 1 µM | 0.15 µM |
